Source: article PMC11396751, “Design, Synthesis, and Anticancer Activity of Novel Enmein-Type Diterpenoid Derivatives Targeting the PI3K/Akt/mTOR Signaling Pathway” (Molecules, 2024)

Assays:
A549 cells [1] = test: Cell cycle analysis, PI/RNase, flow cytometry; assay type: cell-based, human; conditions: 48 h
Method: Cell cycle regulation is an essential process in maintaining normal bodily functions and is often disturbed in cancer cells. The inducement of cell cycle arrest is considered a key avenue for targeted cancer therapy. As a novel enmein-type diterpenoid derivative with remarkable anti-proliferative effects against A549 cells, 7h may have the ability to induce cell cycle arrest. Therefore, A549 cells were treated with 7h, stained with PI/RNase solution, and analyzed for their cell cycle distribution by flow cytometry.
A549 cells were inoculated into 24-well plates and attached via cell adhesion. Then, gradient concentrations (0, 2, 4, and 8 µM) of 7h were added and the cells were co-incubated for 48 h. The cells were cleaned with ice-cold phosphate buffer solution (PBS), digested with trypsin, collected, and prepared as a cell suspension. The cell suspension was treated with PI/RNase staining solution, the data were gathered using a flow cytometer (FACS Calibur, BD, Milpitas, CA, USA), and the cell cycle distribution was analyzed using Flow Jo software. Three attempts were performed for each treatment to eliminate experimental bias.

A549 cells [2] = test: MTT anti-proliferative assay, A549; assay type: cell-based, human
Method: (§1) A series of novel enmein-type diterpenoid derivatives, 5a–m, were synthesized by introducing a side chain containing a carbamate moiety at the C-6 position of compound 4. The anticancer activities of 5a–m were tested against three human cancer cell lines and one human normal cell line by MTT assay.
(§2) Human non-small cell lung cancer cell lines (A549), human liver cancer cell lines (HepG2), human breast cancer cell lines (MCF-7), and human normal cell lines (L-02) were purchased from the cell bank of the Chinese Academy of Sciences. All cells were placed in RPMI-1640 medium (added 10% fetal bovine serum, […]) and cultured in an aseptic environment with 5% CO2 at 37 °C.
(§3) All derivatives were evaluated for their anti-proliferative activities against three cancer cell lines and one normal cell line by MTT assay. The cells in the logarithmic growth phase were inoculated into 96-well plates (3 × 10^3 cells/well) and incubated for 48 h in a sterile environment with 5% CO2 at 37 °C to make them attach via cell adhesion; then, the cells were co-incubated with target compounds for 48 h. After that, MTT solution (10 µL/well) was added to the cell culture medium to continue incubation for 4 h, following which the medium was replaced with DMSO (150 µL/well). The absorbance values at 490 nm were determined using an enzyme meter (Safire 2, Tecan, Männedorf, Switzerland) and further converted to half-inhibitory concentration values of these compounds.

PI3K/Akt/mTOR pathway = test: Western blot analysis in A549 cells; assay type: cell-based, human; conditions: A549, 2, 4 and 8 µM, 48 h
Method: The PI3K/Akt/mTOR pathway is a critical intracellular signaling pathway during cancer development that regulates cellular processes such as proliferation, differentiation, apoptosis, and autophagy. Inhibiting the aberrant activation of the PI3K/Akt/mTOR signaling pathway is envisaged as a promising anticancer strategy. Based on KEGG analysis and researching the literature, the PI3K/Akt/mTOR signaling pathway is predicted to be one of the major pathways for 7h to exert its anticancer effects. Therefore, a western blot assay was performed to determine the expression of the main proteins, PI3K, p-PI3K, Akt, p-Akt, mTOR, and p-mTOR, to examine whether the anticancer ability of 7h against A549 cells is related to its modulation of the PI3K/Akt/mTOR pathway.
Western blot was used to determine the effect of 7h against the related protein expression in A549 cells. A549 cells were inoculated in 6-well plates and treated with a grdient concentrations (0, 2, 4, and 8 µM) of 7h for 48 h. The cells were collected, lysed in RIPA buffer, and heated at 100 °C for 10 min. The samples were processed via 10% sodium dodecyl sulfate-polyacrylamide gel electrophoresis (10% SDS-PAGE) and then transferred to a poly vinylidene difluoride (PVDE) membrane. […]

A549 cells [3] = test: ROS content, H2DCFDA staining; assay type: cell-based, human; conditions: A549, 2, 4 and 8 µM, 48 h, flow cytometry
Method: Reactive oxygen species (ROS) are secondary metabolites of cells and are closely linked to the regulation of multiple biological activities. Elevated intracellular ROS levels are thought to be a hallmark of apoptosis. To determine whether 7h could affect the ROS content in cancer cells, the A549 cells were treated with different concentrations (0, 2, 4, and 8 µM) of 7h and then stained with H2DCFDA.
Flow cytometry was used to detect changes in intracellular reactive oxygen species content, and the results are shown in Figure 5b,c.
A549 cells were inoculated into 24-well plates and attached via cell adhesion. Then, gradient concentrations (0, 2, 4, and 8 µM) of 7h were added and the cells were co-incubated for 48 h. The cells were cleaned with ice-cold PBS, stained with H2DCFDA, mixed, and incubated in cells for 20 min in darkness at 25 °C. The apoptosis morphology of the cells in each group was observed and photographed using a laser confocal microscope (LSM710, Zeiss, Oberkochen, Germany).
A549 cells were inoculated into 6-well plates and attached via cell adhesion. Then, gradient concentrations (0, 2, 4, and 8 µM) of 7h were added and the cells were co-incubated for 48 h. […] The experimental data were gathered using flow cytometry (FACS Calibur, BD, Milpitas, CA, USA) and analyzed using Flow Jo software. […]

MCF-7 cells = test: MTT anti-proliferative assay, MCF-7; assay type: cell-based; conditions: Homo sapiens, MCF7, 48 h, means ± SD of three experiments
Method: as §1, §2, §3

In the case of `C=C1C(=O)C23C(=O)OC45CCC(C)(C)C6C(OC(=O)CCC(=O)N7CCC(c8noc9cc(F)ccc89)CC7)OCC64C2CCC1C3O5` (single isomer, unassigned; ent-6) [Compound 7h, ent-6β,14α-Dihydroxy-(1,7–1,14)-epoxy-7,15-dioxo-6,20-hemiketal-6,7-seco-16-kaurene-6β-yl 4-(4-(6-fluorobenzo[d]isoxazol-3-yl)piperidin-1-yl)-4-oxobutanoate], the “cells in G0/G1 phase” value (A549 cells [1]; A549, 2 µM) is reported as 62.99%, the “cells in G2/M phase” value (A549 cells [1]; A549, 2 µM) is reported as 16.21% and the “cells in S phase” value (A549 cells [1]; A549, 2 µM) is reported as 20.80%. For the same compound, the “cells in G0/G1 phase” value (A549 cells [1]; A549, 4 µM) was 71.04%, the “cells in G2/M phase” value (A549 cells [1]; A549, 4 µM) was 17.63% and the “cells in S phase” value (A549 cells [1]; A549, 4 µM) was 11.33%. The “cells in G0/G1 phase” value (A549 cells [1]; A549, 8 µM) was 89.87%, the “cells in G2/M phase” value (A549 cells [1]; A549, 8 µM) was 3.93% and the “cells in S phase” value (A549 cells [1]; A549, 8 µM) was 6.10%. For the same compound, the “fold better than parental compound 4 (A549 IC50)” value (A549 cells [2]; A549 cells) was 11.03 fold, the IC50 (A549 cells [2]; Homo sapiens, A549, MTT, 48 h, means ± SD of three experiments) was 2.16 ± 1.4 µM and the “Akt protein phosphorylation expression” value (PI3K/Akt/mTOR pathway) was “showed an effect on Akt protein phosphorylation expression”. For the same compound, the “expression levels of p-PI3K and p-mTOR” value (PI3K/Akt/mTOR pathway; dose-dependent, vs blank control) was “effectively reduce”, the “intracellular ROS content” value (A549 cells [3]) was “increased significantly in a dose-dependent manner” and the IC50 (MCF-7 cells) was 6.74 ± 1.94 µM.
